Assays:
[1] = test system: Soybean; test: Increase of the dry biomass of soybean plants after seed treatment; assay type: in vivo; settings: harvested 35 days after emergence, dried at 110° C., free disease conditions
Excerpt: (§1) Treatment with fipronil or fipronil+alpha-cypermethrin under free disease conditions
(§2) Soybean was cultivated under customary conditions at Campinas (Brazil) in 2005/2006. A part of the seeds of the test plants had beforehand been treated with fipronil. Another part of the seeds of the plants had beforehand been treated with a mixture of fipronil and alpha-cypermethrin. 35 days after the emergence of the plants, the plants and their roots were harvested. The leaves and the roots were completely dried in an oven at 110° C. and then weighed.

[2] = test system: Corn; test: Increase of the dry biomass of corn plants after seed treatment; assay type: in vivo; settings: harvested 37 days after emergence, dried at 110° C., free disease conditions
Excerpt: as §1
as §2, with “Corn” for “Soybean”, “37” for “35”

N#Cc1nn(-c2c(Cl)cc(C(F)(F)F)cc2Cl)c(N)c1[S+]([O-])C(F)(F)F (stereo not drawn) [Fipronil, 5-amino-1-(2,6-dichloro-α,α,α-trifluoro-p-tolyl)-4-trifluoromethylsulfinylpyrazole-3-carbonitrile]
Dry weight leaves [1]: 13.15
Dry weight roots [1]: 15.6
Dry weight leaves [2]: 23.38
Dry weight roots [2]: 41.27

Reference: US20100095396A1, “METHOD FOR INCREASING THE DRY BIOMASS OF PLANTS” (priority 2006, published 2010)
